pIC50: −log10 of the molar value. Where “and” joins values, the source holds several entries; their conditions need not be identical. Identical values can stand only once.
Target: human P2X3 receptor (Homo sapiens (Human), UniProt P56373)
Assay: Evaluation of human P2X3 receptor inhibitory activity (Fluo-3 calcium fluorescence, FDSS 3000, ATP stimulation);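 also: stimulus was 50 nM ATP with fluorescence followed for 3 min, and the response per well was peak post-ATP fluorescence divided by the reading at measurement start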
Format: cell-based
Details: C6BU-1 cells stably expressing human P2X3 receptor

human P2X3 receptor, sequence (P56373 whole entry): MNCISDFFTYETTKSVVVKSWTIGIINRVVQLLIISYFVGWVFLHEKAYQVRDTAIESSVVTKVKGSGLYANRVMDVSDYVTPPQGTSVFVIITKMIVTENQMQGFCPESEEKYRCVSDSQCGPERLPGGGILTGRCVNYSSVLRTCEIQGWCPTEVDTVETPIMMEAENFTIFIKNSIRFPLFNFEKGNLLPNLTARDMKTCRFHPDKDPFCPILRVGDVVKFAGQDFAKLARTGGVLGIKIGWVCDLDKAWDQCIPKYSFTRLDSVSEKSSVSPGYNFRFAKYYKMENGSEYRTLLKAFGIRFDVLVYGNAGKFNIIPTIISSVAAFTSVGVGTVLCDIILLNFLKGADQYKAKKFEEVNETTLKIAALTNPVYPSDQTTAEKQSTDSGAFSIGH

| SMILES | pIC50 |
| --- | --- |
| COC(=O)CCCn1c(=O)[nH]/c(=N\c2ccc3nc(C)sc3c2)n(Cc2ccc(Cl)cc2)c1=O [Compound I-2142] | 8.22 |
| COC(=O)[C@@H](C)[C@@H](C)n1c(=O)[nH]/c(=N\c2ccc(OC(C)C)cc2)n(Cc2ccc(C)cc2)c1=O [Compound I-1310] | 7.18 |
| Cn1c(=O)[nH]/c(=N\c2ccc(Oc3cncc(C(=O)O)c3)cc2)n(Cc2ccc(Cl)cc2)c1=O [Compound I-2103] | 7.70 |
| CCOC(=O)CCn1c(=O)[nH]/c(=N\c2ccc(OC3CCC3)c(Cl)c2)n(Cc2ccc(Cl)cc2)c1=O [Compound I-1330] | 8.05 |
| CCn1c(=O)[nH]/c(=N\c2ccc(Oc3ccnc(N)c3)cc2)n(Cc2ccc(Cl)cc2)c1=O [Compound I-2166] | 8.00 |
| COC(=O)[C@H](C)[C@H](C)n1c(=O)[nH]/c(=N\c2ccc(OC(C)C)c(C)c2)n(Cc2ccc(Cl)cc2)c1=O [Compound I-0809] | 7.47 |
| CCOc1ccc(/N=c2\[nH]c(=O)n(C[C@H](C)C(=O)O)c(=O)n2Cc2ccc(Cl)cc2)cc1F [Compound I-0609] | 7.51 |
| CCOC(=O)CC(C)(C)n1c(=O)[nH]/c(=N\c2ccc(OC(C)C)c(C)c2)n(Cc2ccc(Cl)cc2)c1=O [Compound I-0805] | 7.54 |
| CCOC(=O)CCn1c(=O)[nH]/c(=N\c2ccc(OC3CCC3)c(C)c2)n(Cc2ccc(C)cc2)c1=O [Compound I-1400] | 7.89 |
| Cc1cc(/N=c2\[nH]c(=O)n(Cc3ccc[nH]c3=O)c(=O)n2Cc2ccc(Cl)cc2)ccc1OC(C)C [Compound I-0725] | 7.85 |
| C[C@@H](Oc1ccc(/N=c2\[nH]c(=O)n(CCC(=O)NCCO)c(=O)n2Cc2ccc(Cl)cc2)cc1)C(F)(F)F [Compound I-1998] | 7.47 |
| COC(=O)[C@@H](C)Cn1c(=O)[nH]/c(=N\c2ccc(OC(C)C)cc2)n(Cc2ccc(F)cc2)c1=O [Compound I-0618] | 6.92 |
| CCn1c(=O)[nH]/c(=N\c2ccc(Oc3cncc(C(=O)O)c3)cc2)n(Cc2ccc(Cl)cn2)c1=O [Compound I-2164] | 6.90 |
| COC(=O)[C@@H](C)Cn1c(=O)[nH]/c(=N\c2ccc(COC(C)C)cc2)n(Cc2ccc(Cl)cc2)c1=O [Compound I-0656] | 7.00 |
| Cc1cc2cc(/N=c3\[nH]c(=O)n(CC4COC(C)(C)OC4)c(=O)n3Cc3ccc(Cl)cc3)ccc2o1 [Compound I-2069] | 8.15 |
| CCn1c(=O)[nH]/c(=N\c2ccc(Oc3cncc(CO)c3)cc2)n(Cc2ccc(Cl)cc2)c1=O [Compound I-2075] | 7.68 |
| CC(C)Oc1ccc(/N=c2\[nH]c(=O)n([C@@H]3C[C@H]3C(=O)OC(C)(C)C)c(=O)n2Cc2ccc(Cl)cc2)cc1F [Compound I-0604] | 7.89 |
| CCn1c(=O)[nH]/c(=N\c2ccc(Oc3ccnc(OC)n3)cc2)n(Cc2ccc(Cl)cc2)c1=O [Compound I-2008] | 8.15 |
| CNC(=O)CCn1c(=O)[nH]/c(=N\c2ccc(OC(C)C)c(Cl)c2)n(CC2CCC(C)CC2)c1=O (centres unmarked) [Compound I-2019] | 8.30 |
| Cc1nc2ccc(/N=c3\[nH]c(=O)n(CCCC(=O)O)c(=O)n3Cc3ccc(Cl)cc3)cc2s1 [Compound I-2143] | 7.64 |
| Cc1nc2ccc(/N=c3\[nH]c(=O)n(CCO)c(=O)n3CC3CCC(C)CC3)cc2s1 (centres unmarked) [Compound I-2098] | 8.40 |

Same assay, conditions: C6BU-1 cells stably expressing human P2X3 receptor, Fluo-3 fluorescence, FDSS 3000

| SMILES | pIC50 |
| --- | --- |
| Cc1ccc(Cn2c(=O)n(C[C@H](C)C(=O)O)c(=O)[nH]/c2=N\c2ccc(Oc3ccn(C)c(=O)c3)cc2)cc1 [Compound I-1595] | 8.22 |
| C[C@@H](C(=O)O)[C@H](C)n1c(=O)[nH]/c(=N\c2ccc3c(c2)CCOC3)n(Cc2ccc(Cl)cc2)c1=O [Compound I-1810] | 6.17 |
| O=C(NCC(F)(F)F)c1cc(Oc2ccc(/N=c3\[nH]c(=O)[nH]c(=O)n3Cc3ccc(Cl)cc3)cc2)ccn1 [Compound I-1898] | 7.96 |
| Cc1ccc(Cn2c(=O)n(C[C@H](C)C(=O)O)c(=O)[nH]/c2=N\c2ccc(CC3CCCC3)cc2)cc1 [Compound I-1100] | 7.37 |
| CCc1nc2ccc(/N=c3\[nH]c(=O)n(CCC(=O)NCCO)c(=O)n3Cc3ccc(Cl)cc3)cc2s1 [Compound I-1739] | 8.15 |
| COC(=O)[C@@H](C)Cn1c(=O)[nH]/c(=N\c2ccc(N3CCCCC3)cc2)n(Cc2ccc(C)cc2)c1=O [Compound I-1085] | 7.47 |
| C[C@@H](Oc1ccc(/N=c2\[nH]c(=O)n(C[C@H](O)CO)c(=O)n2Cc2ccc(Cl)cc2)cc1)C(F)(F)F [Compound I-1845] | 7.48 |
| Cc1cc(/N=c2\[nH]c(=O)n(C[C@H](C)C(=O)O)c(=O)n2Cc2ccc(Cl)cc2)ccc1CC(C)C [Compound I-0949] | 8.10 and 7.68 |
| CCC(CC)Oc1ccc(/N=c2\[nH]c(=O)n(C[C@H](C)C(=O)O)c(=O)n2Cc2ccc(C)cc2)cc1 [Compound I-1062] | 7.43 |
| COC(=O)[C@@H](C)Cn1c(=O)[nH]/c(=N\c2cccc(SC)c2)n(Cc2ccc(C)cc2)c1=O [Compound I-1153] | 7.15 |
| CCn1c(=O)[nH]/c(=N\c2ccc(Oc3cccc(C(=O)OC)c3)cc2)n(Cc2ccc(Cl)cc2)c1=O [Compound I-1880] | 7.82 |
| CCc1oc2ccc(/N=c3\[nH]c(=O)n(CCCC(N)=O)c(=O)n3Cc3ccc(Cl)cc3)cc2c1C [Compound I-1710] | 8.22 |
| COC(=O)CC1(Cn2c(=O)[nH]/c(=N\c3ccc(OC(C)C)c(Cl)c3)n(Cc3ccc(Cl)cc3)c2=O)CC1 [Compound I-0977] | 7.82 |
| C[C@@H](C(=O)O)[C@H](C)n1c(=O)[nH]/c(=N\c2ccc3ncccc3c2)n(Cc2ccc(Cl)cc2)c1=O [Compound I-1834] | 6.49 |
| CC[C@@H](C)Oc1ccc(/N=c2\[nH]c(=O)n([C@H](C)CC(=O)OC)c(=O)n2Cc2ccc(C)cc2)cc1C [Compound I-0938] | 7.46 |
| CC(C)Oc1ccc(/N=c2\[nH]c(=O)n(C[C@H](C)C(=O)O)c(=O)n2Cc2ccc(Cl)cc2)cc1C#N [Compound I-0960] | 7.15 |
| COC(=O)[C@H](C)[C@H](C)n1c(=O)[nH]/c(=N\c2ccc(OC(C)C)c(F)c2)n(Cc2ccc(C)cc2)c1=O [Compound I-0967] | 7.72 |
| CCn1c(=O)[nH]/c(=N\c2ccc(Oc3ccc(C(N)=O)cc3)cc2)n(Cc2ccc(Cl)cc2)c1=O [Compound I-1870] | 8.40 |
| CCCCCOc1ccc(/N=c2\[nH]c(=O)n(CCC(=O)OCC)c(=O)n2Cc2ccc(C)cc2)cc1 [Compound I-1058] | 7.37 |
| C[C@@H](C(=O)O)[C@H](C)n1c(=O)[nH]/c(=N\c2ccc3nc(-c4ccccc4)sc3c2)n(Cc2ccc(Cl)cc2)c1=O [Compound I-1829] | 7.04 |
| Cc1ccc(Cn2c(=O)n(C[C@H](C)C(=O)O)c(=O)[nH]/c2=N\c2cccc(C3CCCC3)c2)cc1 [Compound I-1110] | 6.40 |
| CC(=O)NCCn1c(=O)[nH]/c(=N\c2ccc(CC(C)C)c(Cl)c2)n(Cc2ccc(Cl)cc2)c1=O [Compound I-1611] | 8.10 |
| Cc1ccc(Cn2c(=O)n(C[C@H](C)C(=O)O)c(=O)[nH]/c2=N\c2ccc(OC(C)C)c(OC(C)C)c2)cc1 [Compound I-1136] | 6.69 |
| CCOC(=O)C1(Cn2c(=O)[nH]/c(=N\c3ccc(OCC4CC4)cc3)n(Cc3ccc(C)cc3)c2=O)CC1 [Compound I-0913] | 8.05 |

Same assay, conditions: human P2X3 receptor, Test Example 1

| SMILES | pIC50 |
| --- | --- |
| CCCOc1ccc(/N=c2\[nH]c(=O)n(C(C)(C)CC(=O)O)c(=O)n2Cc2ccc(Cl)cc2)cc1 [Compound I-0829] | 6.67 |
| CC1(C)OC[C@H](Cn2c(=O)[nH]/c(=N\c3ccc(Oc4cncc(F)c4)cc3)n(Cc3ccc(Cl)cc3)c2=O)O1 [Compound I-2333] | 8.52 |
| NC(=O)c1ccc(Oc2ccc(/N=c3\[nH]c(=O)n(CCO)c(=O)n3Cc3ccc(Cl)cc3)cc2)cc1 [Compound I-2559] | 8.10 |
| Cn1c(=O)[nH]/c(=N\c2ccc(Oc3cnc(C(N)=O)cn3)cc2)n(Cc2ccc(Cl)cc2)c1=O [Compound I-2389] | 8.00 |
| CCn1c(=O)[nH]/c(=N\c2ccc(Oc3cccc(CO)n3)cc2)n(Cc2ccc(Cl)cc2)c1=O [Compound I-2639] | 7.59 |
| C=COc1ccc(/N=c2\[nH]c(=O)n(C[C@H](C)C(=O)OC)c(=O)n2Cc2ccc(C)cc2)cc1Cl [Compound I-1548] | 8.30 |
| NCCn1c(=O)[nH]/c(=N\c2ccc(Oc3ccon3)cc2)n(Cc2ccc(Cl)cc2)c1=O [Compound I-2523] | 6.77 |
| O=C(Cn1c(=O)[nH]/c(=N\c2ccc(Oc3ncns3)cc2)n(Cc2ccc(Cl)cc2)c1=O)NCCO [Compound I-2674] | 8.30 |
| COC(=O)CCn1c(=O)[nH]/c(=N\c2ccc(Oc3cc(C#N)ccn3)cc2)n(Cc2ccc(C)cc2)c1=O [Compound I-2660] | 8.52 |
| NC(=O)Cn1c(=O)[nH]/c(=N\c2ccc(Oc3ccon3)cc2)n(Cc2ccc(Cl)cc2)c1=O [Compound I-2512] | 7.96 |
| O=c1[nH]/c(=N\c2ccc(Oc3ccon3)c(F)c2)n(Cc2ccc(Cl)cc2)c(=O)n1C[C@H](O)CO [Compound I-2440] | 8.30 |
| COc1cc(/N=c2\[nH]c(=O)n(C)c(=O)n2Cc2ccc(Cl)cc2)ccc1Oc1cccc(C#N)n1 [Compound I-2390] | 8.15 |
| COc1ccc(Oc2ccc(/N=c3\[nH]c(=O)n(C[C@H](C)C(=O)O)c(=O)n3Cc3ccc(C)cc3)cc2)cn1 [Compound I-1534] | 8.30 |
| CCn1c(=O)[nH]/c(=N\c2ccc(Oc3cncc(C(N)=O)n3)cc2)n(Cc2ccc(C)cc2)c1=O [Compound I-2472] | 8.52 |
| CCOC(=O)CCn1c(=O)[nH]/c(=N\c2ccc3nc(CC)sc3c2)n(Cc2ccc(Cl)cc2)c1=O [Compound I-1505] | 8.40 |
| O=C(Cn1c(=O)[nH]/c(=N\c2ccc(Oc3ncccn3)cc2)n(Cc2ccc(Cl)cc2)c1=O)NCCO [Compound I-2688] | 7.74 |
| O=c1[nH]/c(=N\c2ccc(Oc3nccs3)cc2)n(Cc2ccc(F)cc2)c(=O)n1CCCO [Compound I-2507] | 7.46 |
| Cc1nsc(Oc2ccc(/N=c3\[nH]c(=O)n(CC(=O)O)c(=O)n3Cc3ccc(Cl)cc3)cc2)n1 [Compound I-2579] | 7.15 |
| CCn1c(=O)[nH]/c(=N\c2ccc(Oc3ccc(NCC(N)=O)nc3)cc2)n(Cc2ccc(Cl)cc2)c1=O [Compound I-2625] | 8.52 |
| CC[C@@H](C)Oc1ccc(/N=c2\[nH]c(=O)n(C[C@H](C)C(=O)OC)c(=O)n2Cc2ccc(C)cc2)cc1C [Compound I-0823] | 7.96 |
